According to PubChem BioAssay AID1963864 (Molecular Pharmacology Branch, DTP, NCI, 2024):

System: KRAS PDC multicell spheroid viability
Test: Anticancer human tumor 521955-158-R6-J3-PDC patient-derived pancreatic carcinoma cell line growth inhibition [KRAS2]
Details: for viability, T/C: stronger effect = lower value
Procedure, shortened: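 KRAS-mutant tumor cells were grown as spheroids with HUVEC endothelial cells and human MSCs as stroma. Targeted agents were tested alone and with KRAS pathway inhibitors. Doses started at or near clinical Cmax, or 10 microM, descending half-log.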

[1] = curve of first compound, second compound 0.1 µM
[2] = curve of first compound, second compound 0.316 µM
[3] = curve of first compound, second compound 1 µM
[4] = curve of first compound, second compound 3.16 µM
[5] = curve of first compound, second compound 10 µM
[6] = second compound 0.1 µM, first compound 0.0316 µM
[7] = second compound 0.316 µM, first compound 0.0316 µM
[8] = second compound 1 µM, first compound 0.0316 µM
[9] = second compound 3.16 µM, first compound 0.0316 µM
[10] = second compound 10 µM, first compound 0.0316 µM
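Note: drug exposure lasted seven days.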
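Throughout, for viability, T/C: 100% = DMSO vehicle wells and lower means fewer viable cells.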

Structure (SMILES): CC(=O)Nc1cccc(-n2c(=O)n(C3CC3)c(=O)c3c(Nc4ccc(I)cc4F)n(C)c(=O)c(C)c32)c1 + CNCc1ccccc1-c1csc(C(C)Nc2nc(C)nc3cc(OC)c(OC)cc23)c1
- IC50 [1]: 16.7 nM
- IC50 [2]: 15.1 nM
- IC50 [3]: 4.73 nM
- IC50 [4]: < 0.1 nM
- IC50 [5]: < 0.1 nM
- viability, T/C (second compound 0.1 µM, first compound 0.0001 µM): 84.3%
- viability, T/C (second compound 0.1 µM, first compound 0.000316 µM): 83.3%
- viability, T/C (second compound 0.1 µM, first compound 0.001 µM): 88.9%
- viability, T/C (second compound 0.1 µM, first compound 0.00316 µM): 75%
- viability, T/C (second compound 0.1 µM, first compound 0.01 µM): 60.7%
- viability, T/C [6]: 37.4%
- viability, T/C (second compound 0.316 µM, first compound 0.0001 µM): 70.3%
- viability, T/C (second compound 0.316 µM, first compound 0.000316 µM): 90.2%
- viability, T/C (second compound 0.316 µM, first compound 0.001 µM): 80.8%
- viability, T/C (second compound 0.316 µM, first compound 0.00316 µM): 72.4%
- viability, T/C (second compound 0.316 µM, first compound 0.01 µM): 60%
- viability, T/C [7]: 33.2%
- viability, T/C (second compound 1 µM, first compound 0.0001 µM): 69.1%
- viability, T/C (second compound 1 µM, first compound 0.000316 µM): 76.6%
- viability, T/C (second compound 1 µM, first compound 0.001 µM): 65.9%
- viability, T/C (second compound 1 µM, first compound 0.00316 µM): 58.4%
- viability, T/C (second compound 1 µM, first compound 0.01 µM): 35.3%
- viability, T/C [8]: 12.3%
- viability, T/C (second compound 3.16 µM, first compound 0.0001 µM): 1.97%
- viability, T/C (second compound 3.16 µM, first compound 0.000316 µM): 0.17%
- viability, T/C (second compound 3.16 µM, first compound 0.001 µM): 7.16%
- viability, T/C (second compound 3.16 µM, first compound 0.00316 µM): 2.18%
- viability, T/C (second compound 3.16 µM, first compound 0.01 µM): 8.31%
- viability, T/C [9]: 1.89%
- viability, T/C (second compound 10 µM, first compound 0.0001 µM): 2.4%
- viability, T/C (second compound 10 µM, first compound 0.000316 µM): 1.9%
- viability, T/C (second compound 10 µM, first compound 0.001 µM): 0.16%
- viability, T/C (second compound 10 µM, first compound 0.00316 µM): 0.16%
- viability, T/C (second compound 10 µM, first compound 0.01 µM): 4.06%
- viability, T/C [10]: 0.45%

Structure (SMILES): COC(=O)c1ccc2c(C(=Nc3ccc(N(C)C(=O)CN4CCN(C)CC4)cc3)c3ccccc3)c(O)[nH]c2c1 + COc1cc2nc(C)nc(NC(C)c3cc(N)cc(C(F)(F)F)c3)c2cc1OC1CCOC1
- IC50 [1]: 3010 nM
- IC50 [2]: 3530 nM
- IC50 [3]: 2410 nM
- IC50 [4]: 1720 nM
- IC50 [5]: < 31.6 nM
- viability, T/C [6]: 90%
- viability, T/C (second compound 0.1 µM, first compound 0.1 µM): 95.7%
- viability, T/C (second compound 0.1 µM, first compound 0.316 µM): 107%
- viability, T/C (second compound 0.1 µM, first compound 1 µM): 115%
- viability, T/C (second compound 0.1 µM, first compound 3.16 µM): 47.6%
- viability, T/C (second compound 0.1 µM, first compound 10 µM): 0.24%
- viability, T/C [7]: 93.9%
- viability, T/C (second compound 0.316 µM, first compound 0.1 µM): 90.3%
- viability, T/C (second compound 0.316 µM, first compound 0.316 µM): 91.4%
- viability, T/C (second compound 0.316 µM, first compound 1 µM): 122%
- viability, T/C (second compound 0.316 µM, first compound 3.16 µM): 55.2%
- viability, T/C (second compound 0.316 µM, first compound 10 µM): 0.21%
- viability, T/C [8]: 84%
- viability, T/C (second compound 1 µM, first compound 0.1 µM): 94.4%
- viability, T/C (second compound 1 µM, first compound 0.316 µM): 107%
- viability, T/C (second compound 1 µM, first compound 1 µM): 115%
- viability, T/C (second compound 1 µM, first compound 3.16 µM): 34.5%
- viability, T/C (second compound 1 µM, first compound 10 µM): 1.78%
- viability, T/C [9]: 75.8%
- viability, T/C (second compound 3.16 µM, first compound 0.1 µM): 75.5%
- viability, T/C (second compound 3.16 µM, first compound 0.316 µM): 108%
- viability, T/C (second compound 3.16 µM, first compound 1 µM): 101%
- viability, T/C (second compound 3.16 µM, first compound 3.16 µM): 4.81%
- viability, T/C (second compound 3.16 µM, first compound 10 µM): 0.15%
- viability, T/C [10]: 42%
- viability, T/C (second compound 10 µM, first compound 0.1 µM): 29.7%
- viability, T/C (second compound 10 µM, first compound 0.316 µM): 6.94%
- viability, T/C (second compound 10 µM, first compound 1 µM): 2.96%
- viability, T/C (second compound 10 µM, first compound 3.16 µM): 2.48%
- viability, T/C (second compound 10 µM, first compound 10 µM): 0.99%

Structure (SMILES): CC(C)NCC(C(=O)N1CCN(c2ncnc3c2C(C)CC3O)CC1)c1ccc(Cl)cc1 (configuration not stated)
- viability, T/C (compound 0.0316 µM): 94.6% [middle of 5 runs]
- viability, T/C (compound 0.1 µM): 85.2% [middle of 5 runs]
- viability, T/C (compound 0.316 µM): 83.1% [middle of 5 runs]
- viability, T/C (compound 1 µM): 77% [middle of 5 runs]
- viability, T/C (compound 3.16 µM): 76.1% [middle of 5 runs]
- viability, T/C (compound 10 µM): 70.1% [middle of 5 runs]
- IC50 (curve of compound): > 10000 nM
